Source: ChEMBL document CHEMBL6153137, “Design, Synthesis, and Biological Evaluation of Novel Orally Available Covalent CDK12/13 Dual Inhibitors for the Treatment of Tumors” (J Med Chem, 2025)
Active and inactive are the calls of the source. The rule behind the calls is not given here.

Legend:
[1] = Toxicity against male Sprague-Dawley rat assessed as effect on phosphorus level in blood at 10 to 40 mg/kg, po administered once daily via gavage for 28 days and measured on day 29; format: organism-based; conditions: in vivo, 696 h, dose 10-40 mg/kg, time 29 day
[2] = target: CDK7/Cyclin H/MNAT1 (Homo sapiens) (UniProt P51946+P50613+P51948); test: Inhibition of human recombinant N-terminal 6X His-tagged CDK7/CCNH/N-terminal 6X His-tagged MNAT1 expressed in HEP Sf9 cells using ATP as substrate at 2 uM measured after 60 mins by ADP-Glo reagent based luminescence assay
[3] = Toxicity against female Sprague-Dawley rat assessed as effect on mean corpuscular hemoglobin at 7.5 to 30 mg/kg, po administered once daily via gavage for 28 days and measured on day 29; format: organism-based; conditions: in vivo, 696 h, dose 7.5-30 mg/kg, time 29 day
[4] = Half-life in Balb/c mouse xenografted with human MV4-11 cells at 30 mg/kg, po administered once daily via gavage; format: ADME, organism-based; conditions: in vivo
[5] = target: CDK1/Cyclin A (Homo sapiens) (UniProt P06493+P20248); test: Inhibition of human recombinant N-terminal GST-tagged CDK1/N-terminal GST-tagged and C-terminal 8X His-tagged Cyclin A2 expressed in HEP Sf9 cells using ATP as substrate at 2 uM measured after 60 mins by ADP-Glo reagent based luminescence analysis
Sequence of CDK1/Cyclin A (Homo sapiens) (P06493 whole entry, looked up): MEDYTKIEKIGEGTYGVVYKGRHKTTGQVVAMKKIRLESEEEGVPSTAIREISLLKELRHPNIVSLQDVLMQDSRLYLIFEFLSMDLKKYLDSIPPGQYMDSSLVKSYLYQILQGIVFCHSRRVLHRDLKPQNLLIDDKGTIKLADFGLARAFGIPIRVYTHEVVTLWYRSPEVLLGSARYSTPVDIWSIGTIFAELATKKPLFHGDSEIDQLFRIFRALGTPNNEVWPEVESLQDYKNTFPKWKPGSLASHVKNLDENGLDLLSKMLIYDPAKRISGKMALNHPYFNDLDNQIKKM
Sequence of CDK1/Cyclin A (Homo sapiens) (P20248 whole entry, looked up): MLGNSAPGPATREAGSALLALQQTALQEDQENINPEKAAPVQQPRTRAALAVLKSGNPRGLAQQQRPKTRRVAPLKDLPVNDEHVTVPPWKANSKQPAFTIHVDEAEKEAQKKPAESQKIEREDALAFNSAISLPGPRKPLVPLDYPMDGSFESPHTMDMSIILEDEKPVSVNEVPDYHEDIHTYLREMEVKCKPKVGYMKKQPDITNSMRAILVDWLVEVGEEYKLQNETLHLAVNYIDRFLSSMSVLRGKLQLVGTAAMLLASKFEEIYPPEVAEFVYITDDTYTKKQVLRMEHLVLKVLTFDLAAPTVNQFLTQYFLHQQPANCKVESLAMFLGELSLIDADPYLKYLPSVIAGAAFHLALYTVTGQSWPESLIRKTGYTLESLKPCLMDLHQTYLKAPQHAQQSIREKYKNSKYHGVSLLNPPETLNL

[6] = target: Cytochrome P450 2D6 (Homo sapiens, UniProt P10635); test: Inhibition of CYP2D6 in human liver microsomes assessed as inhibition of dextromethorphan-O-demethylation incubated for 10 mins in presence of NADPH by LC-MS/MS analysis; format: ADME, Microsome
Sequence of Cytochrome P450 2D6 (P10635 whole entry): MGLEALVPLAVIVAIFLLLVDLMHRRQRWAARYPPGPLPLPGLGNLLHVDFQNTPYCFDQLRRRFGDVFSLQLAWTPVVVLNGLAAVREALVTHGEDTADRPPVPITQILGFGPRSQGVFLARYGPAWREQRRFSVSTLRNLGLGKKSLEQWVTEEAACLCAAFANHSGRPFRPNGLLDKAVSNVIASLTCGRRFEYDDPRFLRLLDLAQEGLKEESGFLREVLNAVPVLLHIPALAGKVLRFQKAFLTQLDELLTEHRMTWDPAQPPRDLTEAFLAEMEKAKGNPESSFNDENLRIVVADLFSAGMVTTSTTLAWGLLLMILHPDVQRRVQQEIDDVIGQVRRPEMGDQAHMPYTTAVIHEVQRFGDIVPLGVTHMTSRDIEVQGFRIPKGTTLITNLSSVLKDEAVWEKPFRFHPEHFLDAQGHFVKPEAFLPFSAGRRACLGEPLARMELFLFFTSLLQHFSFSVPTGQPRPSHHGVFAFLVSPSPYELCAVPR

[7] = tested on: Caco-2; test: Antiproliferative activity against human Caco-2 cells assessed as reduction in cell viability incubated for 7 days by CellTiter-Glo reagent based luminescence analysis; format: functional; conditions: Caco-2, 168 h
[8] = AUC(0 to t) in male Sprague-Dawley rat at 40 mg/kg, po administered once daily via gavage for 28 days; format: ADME, organism-based; conditions: in vivo, 672 h, time 28 day
[9] = target: Cytochrome P450 3A4 (Homo sapiens, UniProt P08684); test: Inhibition of CYP3A4 in human liver microsomes assessed as inhibition of midazolam-1'-hydroxylation incubated for 10 mins in presence of NADPH by LC-MS/MS analysis; format: ADME, Microsome
Sequence of Cytochrome P450 3A4 (P08684 whole entry): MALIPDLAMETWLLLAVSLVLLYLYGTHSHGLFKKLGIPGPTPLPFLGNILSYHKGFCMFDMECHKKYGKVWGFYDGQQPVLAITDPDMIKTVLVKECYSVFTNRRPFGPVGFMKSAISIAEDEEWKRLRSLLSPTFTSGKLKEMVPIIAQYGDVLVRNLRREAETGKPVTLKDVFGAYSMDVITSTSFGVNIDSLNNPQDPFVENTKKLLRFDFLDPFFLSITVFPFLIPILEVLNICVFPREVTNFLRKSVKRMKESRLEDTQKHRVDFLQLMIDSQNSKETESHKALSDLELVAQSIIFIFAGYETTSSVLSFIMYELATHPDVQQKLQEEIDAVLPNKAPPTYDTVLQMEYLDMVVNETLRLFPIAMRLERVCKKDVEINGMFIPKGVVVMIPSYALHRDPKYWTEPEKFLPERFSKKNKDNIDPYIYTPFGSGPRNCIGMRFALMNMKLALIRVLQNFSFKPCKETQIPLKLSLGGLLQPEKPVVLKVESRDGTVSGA

[10] = target: Cytochrome P450 2C9 (Homo sapiens, UniProt P11712); test: Inhibition of CYP2C9 in human liver microsomes assessed as inhibition of diclofenac-4-hydroxylation incubated for 10 mins in presence of NADPH by LC-MS/MS analysis; format: ADME, Microsome
Sequence of Cytochrome P450 2C9 (P11712 whole entry): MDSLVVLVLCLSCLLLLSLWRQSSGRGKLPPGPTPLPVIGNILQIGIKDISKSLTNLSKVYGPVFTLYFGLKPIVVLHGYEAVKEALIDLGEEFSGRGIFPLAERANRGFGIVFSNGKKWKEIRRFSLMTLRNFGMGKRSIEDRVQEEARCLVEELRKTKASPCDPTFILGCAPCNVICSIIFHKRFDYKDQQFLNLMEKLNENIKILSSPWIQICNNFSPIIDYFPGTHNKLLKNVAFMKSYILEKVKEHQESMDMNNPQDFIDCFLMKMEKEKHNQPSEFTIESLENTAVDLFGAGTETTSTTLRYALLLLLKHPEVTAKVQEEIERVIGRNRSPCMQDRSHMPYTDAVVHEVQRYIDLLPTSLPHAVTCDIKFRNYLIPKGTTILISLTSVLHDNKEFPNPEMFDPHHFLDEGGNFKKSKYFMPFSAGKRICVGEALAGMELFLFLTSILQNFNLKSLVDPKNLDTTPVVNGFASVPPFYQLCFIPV

[11] = Cmax in Sprague-Dawley rat at 5 mg/kg, po measured for 24 hrs by LC-MS/MS analysis; format: ADME, organism-based; conditions: in vivo
[12] = AUC(0 to t) in female Sprague-Dawley rat at 15 mg/kg, po administered via gavage and measured on day 1; format: ADME, organism-based; conditions: in vivo, 24 h, time 1 day
[13] = target: CDK2/Cyclin A2 (Homo sapiens) (UniProt P24941+P20248); test: Inhibition of human recombinat N-terminal GST-tagged CDK2/C-terminal 8X His-tagged Cyclin A2 expressed in HEP Sf9 cells using ATP as substrate at 2 uM measured after 60 mins by ADP-Glo reagent based luminescence analysis
[14] = tested on: MV4-11; test: Antitumor activity against human MV4-11 cells xenografted in Balb/c nude mouse assessed as inhibition of tumor growth at 15 mg/kg, po administered once daily via gavage and measured on day 21; format: functional; conditions: MV4-11, 504 h, time 21 day, read-out: TGI
[15] = target: CDK18/Cyclin Y (Homo sapiens) (UniProt Q07002+Q8ND76); test: Inhibition of human recombinant N-terminal GST-tagged CDK18/N-terminal GST-tagged Cyclin Y expressed in HEP Sf9 cells using ATP as substrate at 2 uM measured after 60 mins by ADP-Glo reagent based luminescence assay
[16] = tested on: SUM149PT; test: Induction of DNA damage in human SUM149PT cells assessed as increase in gammaH2AX phosphorylation at 250 to 1000 nM incubated for 1 to 24 hrs by western blot analysis; format: functional, cell-based; conditions: dose 250-1000 nM, time lower 1.0 hrs, time upper […]
[17] = AUC in Balb/c mouse xenografted with human SUM149PT cells at 30 mg/kg, po administered once daily via gavage; format: ADME, organism-based; conditions: in vivo
[18] = target: Cyclin-dependent kinase 13/Cyclin-K (Homo sapiens, UniProt Q14004); test: Inhibition of human recombinant N-terminal GST-tagged CDK13/N-terminal FLAG and C-terminal His-tagged Cyclin K expressed in HEP Sf9 cells using ATP as substrate measured after 60 mins by ADP-Glo reagent based luminescence assay
Sequence of Cyclin-dependent kinase 13/Cyclin-K (Q14004 whole entry): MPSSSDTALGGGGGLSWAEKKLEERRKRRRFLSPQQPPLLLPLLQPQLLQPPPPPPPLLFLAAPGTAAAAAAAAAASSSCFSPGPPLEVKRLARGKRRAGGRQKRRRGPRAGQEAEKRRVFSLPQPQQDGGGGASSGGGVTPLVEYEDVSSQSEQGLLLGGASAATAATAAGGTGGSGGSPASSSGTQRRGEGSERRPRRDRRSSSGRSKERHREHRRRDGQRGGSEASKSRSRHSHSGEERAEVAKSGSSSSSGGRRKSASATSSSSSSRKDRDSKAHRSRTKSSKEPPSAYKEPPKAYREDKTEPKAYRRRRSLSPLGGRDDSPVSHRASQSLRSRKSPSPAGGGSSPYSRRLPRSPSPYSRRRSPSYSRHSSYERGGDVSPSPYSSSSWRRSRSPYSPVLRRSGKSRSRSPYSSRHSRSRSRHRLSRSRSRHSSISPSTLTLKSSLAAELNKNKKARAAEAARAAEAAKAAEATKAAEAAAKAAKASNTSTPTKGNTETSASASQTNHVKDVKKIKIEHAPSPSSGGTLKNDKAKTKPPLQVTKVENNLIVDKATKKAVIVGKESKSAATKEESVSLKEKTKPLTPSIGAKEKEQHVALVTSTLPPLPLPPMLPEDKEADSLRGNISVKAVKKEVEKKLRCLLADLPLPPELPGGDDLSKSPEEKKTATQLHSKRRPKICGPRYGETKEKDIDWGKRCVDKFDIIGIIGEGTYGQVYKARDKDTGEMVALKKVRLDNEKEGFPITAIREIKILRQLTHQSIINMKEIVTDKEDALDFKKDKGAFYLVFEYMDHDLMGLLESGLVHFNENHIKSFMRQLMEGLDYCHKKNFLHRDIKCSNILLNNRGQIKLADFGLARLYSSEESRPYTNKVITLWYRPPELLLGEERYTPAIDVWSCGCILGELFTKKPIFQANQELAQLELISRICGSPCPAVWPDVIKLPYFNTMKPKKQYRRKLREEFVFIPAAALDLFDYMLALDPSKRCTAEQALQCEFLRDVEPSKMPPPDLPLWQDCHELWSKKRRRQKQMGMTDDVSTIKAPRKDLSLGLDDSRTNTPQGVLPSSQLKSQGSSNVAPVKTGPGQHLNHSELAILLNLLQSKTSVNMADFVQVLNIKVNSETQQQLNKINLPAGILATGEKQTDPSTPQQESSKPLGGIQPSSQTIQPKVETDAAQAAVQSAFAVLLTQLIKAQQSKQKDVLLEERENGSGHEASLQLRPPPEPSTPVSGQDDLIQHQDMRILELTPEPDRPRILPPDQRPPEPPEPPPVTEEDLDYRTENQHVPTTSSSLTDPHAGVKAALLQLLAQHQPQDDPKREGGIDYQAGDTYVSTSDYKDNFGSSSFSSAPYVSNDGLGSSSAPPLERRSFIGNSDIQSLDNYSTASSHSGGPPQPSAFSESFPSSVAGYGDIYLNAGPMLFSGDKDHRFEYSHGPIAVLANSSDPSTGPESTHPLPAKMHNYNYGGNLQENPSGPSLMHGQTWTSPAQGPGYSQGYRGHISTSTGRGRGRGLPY
Sequence of Cyclin-dependent kinase 13/Cyclin-K (O75909 whole entry, further chain): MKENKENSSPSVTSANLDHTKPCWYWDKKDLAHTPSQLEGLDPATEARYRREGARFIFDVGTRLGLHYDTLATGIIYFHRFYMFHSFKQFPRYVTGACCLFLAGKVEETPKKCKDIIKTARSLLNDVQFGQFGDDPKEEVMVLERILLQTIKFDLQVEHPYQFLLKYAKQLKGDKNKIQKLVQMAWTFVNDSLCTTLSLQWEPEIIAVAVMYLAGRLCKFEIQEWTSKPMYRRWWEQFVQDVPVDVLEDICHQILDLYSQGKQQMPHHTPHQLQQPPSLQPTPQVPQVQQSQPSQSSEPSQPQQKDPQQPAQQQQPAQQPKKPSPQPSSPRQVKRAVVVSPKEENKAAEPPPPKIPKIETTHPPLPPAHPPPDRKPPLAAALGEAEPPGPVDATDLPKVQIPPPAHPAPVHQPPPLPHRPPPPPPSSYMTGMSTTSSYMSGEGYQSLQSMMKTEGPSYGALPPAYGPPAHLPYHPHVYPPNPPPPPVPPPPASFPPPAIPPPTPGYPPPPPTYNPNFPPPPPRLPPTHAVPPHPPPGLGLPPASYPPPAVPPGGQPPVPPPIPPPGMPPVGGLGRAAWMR

[19] = Half-life in Balb/c mouse xenografted with human MV4-11 cells at 15 mg/kg, po administered once daily via gavage; format: ADME, organism-based; conditions: in vivo
[20] = GSH reactivity assessed as half life to adduct formation at 0.1 uM by LC-MS/MS analysis; format: physicochemical
[21] = Half-life of the compound in human Plasma; format: ADME, cell-free
[22] = target: Cyclin-dependent kinase 12/13 (Homo sapiens) (UniProt Q14004+Q9NYV4); test: Inhibition of CDK12/13 in human SUM149PT cells assessed as reduction in ATM gene expression at 500 nM incubated for 8 to 24 hrs by qPCR analysis; format: cell-based; conditions: time lower 8.0 hrs, time upper […]
[23] = Half life in female Sprague-Dawley rat at 30 mg/kg, po administered once daily via gavage for 28 days; format: ADME, organism-based; conditions: in vivo, time 28 day
[24] = Half life in Sprague-Dawley rat at 150 mg/kg, po measured for 24 hrs by LC-MS/MS analysis; format: ADME, organism-based; conditions: in vivo
[25] = Cmax in Sprague-Dawley rat at 50 mg/kg, po measured for 24 hrs by LC-MS/MS analysis; format: ADME, organism-based; conditions: in vivo
[26] = tested on: HEP Sf9; test: Inhibition of human recombinant N-terminal GST-tagged CDK6/C-terminal 6X His-tagged Cyclin D3 S259A mutant expressed in HEP Sf9 cells using ATP as substrate at 2 uM measured after 60 mins by ADP-Glo reagent based luminescence analysis
[27] = Toxicity against male Sprague-Dawley rat assessed as decrease in thymus weight at 10 to 40 mg/kg, po administered once daily via gavage for 28 days and measured on day 29; format: organism-based; conditions: in vivo, 696 h, dose 10-40 mg/kg, time 29 day
[28] = tested on: MV4-11; test: Antitumor activity against human MV4-11 cells xenografted in Balb/c nude mouse assessed as inhibition of tumor growth at 30 mg/kg, po administered once daily via gavage and measured on day 21; format: functional; conditions: MV4-11, 504 h, time 21 day, read-out: TGI
[29] = Toxicity against female Sprague-Dawley rat assessed as decrease in thymus volume at 7.5 to 30 mg/kg, po administered once daily via gavage for 28 days and measured on day 29; format: organism-based; conditions: in vivo, 696 h, dose 7.5-30 mg/kg, time 29 day
[30] = tested on: SUM149PT; test: Antitumor activity against human SUM149PT cells xenografted in Balb/c mouse assessed as inhibition of tumor growth at 60 mg/kg, po administered once daily via gavage and measured on day 20; format: functional; conditions: 480 h, time 20 day, read-out: TGI
[31] = AUC(0 to t) in female Sprague-Dawley rat at 7.5 mg/kg, po administered via gavage and measured on day 1; format: ADME, organism-based; conditions: in vivo, 24 h, time 1 day

- inhibition [2]: 94%
- half-life [4]: 1.17 h
- inhibition [5]: 10%
- IC50 [6]: > 50000 nM
- IC50 [7]: 122 nM
- AUCt [8]: 6070 ng·h/mL
- IC50 [9]: > 50000 nM
- IC50 [10]: > 50000 nM
- Cmax [11]: 808 ng/mL
- AUCt [12]: 3000 ng·h/mL
- inhibition [13]: 1%
- inhibition [15]: 68%
- AUC [17]: 2690 ng·h/mL
- IC50 [18]: 111 nM
- half-life [19]: 4.09 h
- t1/2 [20]: 1.48 h
- half-life [21]: > 4.82 h
- inhibition [22]: Active
- half-life [23]: 4.5 h
- half-life [24]: 21.2 h
- Cmax [25]: 1900 ng/mL
- AUCt [31]: 1640 ng·h/mL
SMILES: C=CC(=O)N1CCc2c(ncnc2N2CC[C@@H](Nc3ncc(Cl)c(OC)n3)C2)C1
- Activity [1]: Non-toxic
- Activity [3]: Non-toxic
- inhibition in vivo at 15 mg/kg [14]: 31%
- Activity [16]: Active
- inhibition [26]: 23%
- Activity [27]: Toxic
- inhibition in vivo at 30 mg/kg [28]: 95%
- Activity [29]: Toxic
- inhibition in vivo at 60 mg/kg [30]: 114%
